From patent publication US20150335678A1, “METHOD OF ACTIVATING STEM CELLS IN AN ANIMAL AND THE USE OF CHLORINE DIOXIDE FOR PREPARING MEDICINES FOR ACTIVATING STEM CELLS IN AN ANIMAL” (priority 2012, published 2015)

How the values were obtained:
[1] = test system: gastric ulcer; test: hp-positive gastric ulcer patients: symptoms and ulcer healing by gastroscopy (Example 11); format: in vivo, human
Description: The subjects consisted of 90 gastric ulcer patients (50 male and 40 female) of hp-positive aged from 33 to 75 years old (average age: 41 years old). The subjects were randomly assigned to treatment group and control group with 30 patients in treatment group and 30 in control group 1 and 30 in control group 2 respectively.
Allow the solution to mix for 3-5 minutes. The capsule that containing activating agent of stem cells was made by injecting the mixed solution into the soft capsule of number 0.
The capsule that containing activating agent of stem cells was administered to the patients in treatment group three times a day and a pill each time; 30 minutes before meals, patients in control group 1 took orally 15 mg colloidal bismuth and 100 mg pectin tinidazole for three times a day. And 20 mg Omeprazole two times a day; patients in control group 2 took orally […] amoxicillin and 500 mg clindamycin three times a day and 20 mg esomeprazole twice a day before meals. Both groups were administered for a consecutive week. To observe the improvement of the clinical symptoms of the three cases two weeks after administration, such as stomachache, nausea and sour regurgitation. Gastroscopy and urease test of gastric antral mucosa were conducted after 30 days to observe ulcer healing and eradication of hp.
Criteria for measuring the effects: the changes of conditions before and after treatment and the time the symptoms disappear were recorded precisely. Diagnostic criteria are the followings: 1) complete healing: the symptoms disappear, such as ache, heartburn, nausea, sour regurgitation, abdominal distention; cure of ulceration under a gastroscope and the inflammation is gone; H pylori is negative. 2) Almost healing: subjective symptom disappear, and more than 90% ulceration are healed and the inflammation around is gone. 3) Effective: more than half of the ulcer surface shrink or more than half of ulceration reduced; 4) Ineffective: less than half of the ulceration are healed or haven't been changed, or even the ulcer surface or ulceration increase. To conduct rapid urease test by taking one sample of gastric mucosa at antrum of stomach and gastric body respectively, if the results are negative, it means Hp negative conversing.

[2] = test system: wound; settings: clinical trial report No. NCT01341041, Rhode Island Hospital; cited from earlier work
[3] = test system: Ankylosing spondylitis; test: Ankylosing spondylitis patients: BASRI, Harris hip score, BASDAI, BASFI, ESR, CRP (Example 6); settings: for BASDAI: before treatment 6.4 ± 1.8; for BASFI: before treatment 7.3 ± 1.6; for CRP: before treatment 17.6 ± 4.2; for ESR: before treatment 29.4 ± 9.8; for BASRI Staging: before treatment 45 ± 5; for Harris hip score: before treatment 82 ± 6
Description: The first solution was a mixed solution made of sodium chlorite with the concentration of 7.47% and sodium chloride with the concentration of 1.59% with deionized water; the second solution was made of citric acid with the concentration of 16.7% with deionized water. Same volume of solutions were taken out from different vessels with different volume and put into the suitable glass or plastic cups prepared. Allow the solution to mix for 3-5 minutes and then filter the solution with 0.22 μm filter membrane of double-deck, dimethyl sulfoxide was added in the ratio of 1:1. The solution was smeared over the region immediately and repeatedly, once a day for consecutive three weeks. The administration was stopped for a week, and then began the treatment for consecutive three weeks, stop the drug for a week. The medicine was repeated for four cycles. Clean and disinfect the area before administration and conduct local anesthetic 30 minutes before operation. To use corresponding amount of solution according to different regions, varying from 1-10 ml/100 cm^2.
The subjects consisted of 8 male and 4 female AS patients aged from 18 to 40 years old (average age: 26 years old).
Mean index: the index of X ray of the hip joints:
Stage I: suspicious change, local joint space may become narrower, 25 points;
Stage II: mildly abnormal, joint space becomes narrower obviously, the space>2 mm, 50 points;
Stage III: moderately abnormal, joint space becomes narrow, and the space <2 mm or the local joint space disappears, articular surfaces <2 mm, 75 points;
Stage IV: severe abnormal, bone deformation, articular surfaces >2 cm, 100 points.
If two of the three symptoms, namely, erosion and damage, syndesmophyte formation, arthrokatadysis appear during stage I and II, it should increase a level accordingly. BASRI evaluation was given according to different levels. Harris score: full score is 100 points, including pain degree of hip joints (44 points), function of hip joints (47 points), degree of lower limb malformation (4 points), range of activity of hip joints (5 points). Corresponding scores were given according to degrees. BASFI, BASDAI, ESR, CRP were applied in evaluating disease activity and function.

[4] = test system: postoperative complications of lung cancer; test: Postoperative complications of lung cancer (Example 12); format: in vivo, human; settings: 15 patients
Description: The subjects consisted of 30 lung cancer patients of stage I, II III who had operations on lung cancer just now. The subjects were randomly assigned to treatment group and control group with 15 patients respectively.
[…] acid aqueous solution with a ph value of 3 was made by citric acid and deionized water. 500 ml aqueous solution of 30% was made with deionized water and sodium chlorite, 500 ml aqueous solution of 50% was made with deionized water and citric acid. To mix the above solutions in a conical beaker of 2 L capacity and then put them in the prepared acid aqueous solution by a plastic tube with bottle stopper. The activating agent of stem cells comprising chlorine dioxide was made by bubbling chlorine dioxide in the acid aqueous solution for 40 minutes and the solution was contained in 150 plastic bottles with 100 ml capacity and stored in the fridge.
Each patient in treatment group received 10 bottles of the solution. Open the plastic bottle cap and do alternate nostril breathing for 2-10 minutes on day 2 after the operation with a bottle a day for three times, then cover the bottleneck once finished. No special nursing means were applied in control group, then observe the complications a month after the operation.

[5] = test system: rat; settings: ClO2 276.5 mg/L, cited from earlier work
[6] = 12 AS patients, topical with DMSO
[7] = the sixth month, 12 AS patients, topical with DMSO
[8] = the third month, 12 AS patients, topical with DMSO

With [O][Cl+][O-] [chlorine dioxide solution, chlorine dioxide] the “Symptoms disappear after a week (No.)” value ([1]; 30 hp-positive gastric ulcer patients per group, administered for a consecutive week, test capsule NaClO2 20%/NaCl 5% + citric acid 30% 1:1, one pill three times a day) was 30, the “Effective after 30 d (%)” value ([1]; 30 patients per group) was 3.3% and the “Healing after 30 d (%)” value ([1]; 30 patients per group) was 3.3%. The “Symptoms disappear after a week (%)” value ([1]; 30 patients per group, administered for a consecutive week) was 100%, the “Healing after 30 d (No.)” value ([1]; 30 patients per group, almost healing: more than 90% ulceration healed) was 1 and the “Complete healing after 30 d (%)” value ([1]; 30 patients per group, gastroscopy) was 93.3%. For the same compound, the “Complete healing after 30 d (No.)” value ([1]; 30 patients per group, gastroscopy, administered for a consecutive week) was 28, the “Effective after 30 d (No.)” value ([1]; 30 patients per group, more than half of ulcer surface shrink) was 1 and the “effects compared with normal saline in wound irrigation” value [2] was “promote healing and reduce scar formation”. For the same compound, the “time until pain and itch during administration disappear completely” value [3, 6] was “after an hour”, the tolerance [3, 6] was “without local or systemic anaphylactic reaction” and the “change of BASRI staging of the involved hip joints vs before administration” value ([3]; six months after administration) was “reduced a level”. For the same compound, the BASDAI [3, 7] was 3.0 ± 1.2, the BASFI [3, 7] was 2.9 ± 1.1 and the CRP [3, 7] was 1.2 ± 0.6. For the same compound, the ESR [3, 7] was 9.1 ± 6.8, the “BASRI Staging” value [3, 7] was 25 ± 8 and the Harris hip score [3, 7] was 32 ± 4. It also gave a BASDAI [3, 8] of 3.6 ± 1.5, a BASFI [3, 8] of 3.3 ± 1.4 and a CRP [3, 8] of 6.3 ± 3.5. For the same compound, the ESR [3, 8] was 11.8 ± 7.6, the “BASRI Staging” value ([3]; the third month, 12 AS patients, NaClO2 7.47% + citric acid 16.7% 1:1, DMSO 1:1, smeared once a day, three weeks on/one week off, four cycles) was 30 ± 6 and the Harris hip score [3, 8] was 49 ± 5. For the same compound, the “change of BASRI staging of the involved hip joints vs before administration” value ([3]; three months after administration) was “reduced half level”, the “Serious complications (No.)” value ([4]; a month after lung cancer operation, ClO2 gas bubbled into pH 3 citric acid solution, nostril breathing 2-10 minutes three times a day, 10 bottles, control 4 (26.7%)) was 1 and the “No complication (No.)” value ([4]; a month after operation, inhalation, control 5 (33.3%)) was 9. The “Minor complications (No.)” value ([4]; a month after operation, inhalation, control 6 (40%)) was 5, the “Serious complications (%)” value ([4]; a month after operation, inhalation, control 26.7%) was 6.7% and the “No complication (%)” value ([4]; a month after operation, inhalation, control 33.3%) was 60%. For the same compound, the “Minor complications (%)” value ([4]; a month after operation, inhalation, control 40%) was 33.3%, the “accumulative toxicity classification of aqueous solution” value ([5]; NaClO2 200 mg/L, NaClO3) was “non-obvious accumulative toxic” and the “toxicity classification of aqueous solution” value ([5]; NaClO2 and NaClO3 200 mg/L, ClO2 mixed solution total concentration 553 mg/L) was “actually non-toxic”.
